Measurements reported in publication PMC9005681, “Use of AD Informer Set compounds to explore validity of novel targets in Alzheimer's disease pathology” (Alzheimer's & Dementia : Translational Research & Clinical …, 2022).
Where “and” joins values, the source holds several entries; their conditions need not be identical. Identical values can stand only once.

Legend:
Assay in all cases: PDSP GPCR panel primary binding assays at 10 μM
[1] = target: T1, cloned human or rodent CNS receptors, channels, and transporters (PDSP panel) (Homo sapiens, UniProt P08908); conditions: 5-HT1A, primary assay
T1 construct: expressed in transfected cells
T1 sequence (P08908 1-422): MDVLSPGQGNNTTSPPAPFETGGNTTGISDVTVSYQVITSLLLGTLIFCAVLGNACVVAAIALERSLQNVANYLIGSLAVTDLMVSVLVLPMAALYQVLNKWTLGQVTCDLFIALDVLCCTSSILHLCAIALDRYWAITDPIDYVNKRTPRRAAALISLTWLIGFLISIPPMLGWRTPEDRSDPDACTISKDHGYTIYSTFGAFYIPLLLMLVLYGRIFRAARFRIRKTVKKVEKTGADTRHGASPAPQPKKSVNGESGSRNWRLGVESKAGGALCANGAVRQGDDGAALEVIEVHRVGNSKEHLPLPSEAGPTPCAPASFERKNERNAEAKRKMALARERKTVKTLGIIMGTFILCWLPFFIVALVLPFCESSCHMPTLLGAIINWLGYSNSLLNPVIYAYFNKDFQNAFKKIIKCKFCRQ
Outline: (§1)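 Primary screen: 10 μM, quadruplicate, displacement of radio-labeled standard ligand. Hit cut-off >50% mean displacement → secondary 11-point dose-response, triplicate. H3, PBR, GABAA excluded from follow-up.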

[2] = target: T2, cloned human or rodent CNS receptors, channels, and transporters (PDSP panel) (Homo sapiens, UniProt P28221); conditions: 5-HT1D, primary assay
T2 construct: expressed in transfected cells
Outline: as §1

[3] = target: T3, cloned human or rodent CNS receptors, channels, and transporters (PDSP panel) (Homo sapiens, UniProt P41145); conditions: KOR, primary assay
T3 construct: expressed in transfected cells
Outline: as §1

[4] = target: T4, cloned human or rodent CNS receptors, channels, and transporters (PDSP panel) (Homo sapiens, UniProt P35367); conditions: H1, primary assay
T4 construct: expressed in transfected cells
Outline: as §1

[5] = target: T5, cloned human or rodent CNS receptors, channels, and transporters (PDSP panel) (Homo sapiens, UniProt P28222); conditions: 5-HT1B, primary assay
T5 construct: expressed in transfected cells
Outline: as §1

[6] = system: cloned human or rodent CNS receptors, channels, and transporters (PDSP panel); conditions: primary assay; for Mean %: mean inhibition; for Inhibition 1: replicate 1; for Inhibition 2: replicate 2; for Inhibition 3: replicate 3; for Inhibition 4: replicate 4
Outline: as §1

[7] = target: T6, cloned human or rodent CNS receptors, channels, and transporters (PDSP panel) (Homo sapiens, UniProt P08912); conditions: M5, primary assay
T6 construct: expressed in transfected cells
T6 sequence (P08912 1-532): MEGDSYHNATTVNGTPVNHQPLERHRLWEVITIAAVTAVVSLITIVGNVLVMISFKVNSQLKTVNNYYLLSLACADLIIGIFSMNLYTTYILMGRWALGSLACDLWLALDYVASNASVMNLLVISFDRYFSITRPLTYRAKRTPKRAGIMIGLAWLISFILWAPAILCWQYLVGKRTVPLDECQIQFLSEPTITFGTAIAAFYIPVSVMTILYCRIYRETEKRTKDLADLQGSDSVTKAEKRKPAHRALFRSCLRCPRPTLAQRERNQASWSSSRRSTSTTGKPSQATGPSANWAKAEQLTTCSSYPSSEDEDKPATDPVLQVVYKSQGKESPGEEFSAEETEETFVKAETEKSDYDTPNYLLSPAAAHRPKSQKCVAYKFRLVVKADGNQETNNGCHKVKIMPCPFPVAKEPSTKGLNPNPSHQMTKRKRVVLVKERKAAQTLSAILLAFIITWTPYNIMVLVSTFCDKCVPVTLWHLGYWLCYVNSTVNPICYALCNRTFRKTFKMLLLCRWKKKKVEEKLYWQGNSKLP
Outline: as §1

T2 sequence (P28221 whole entry): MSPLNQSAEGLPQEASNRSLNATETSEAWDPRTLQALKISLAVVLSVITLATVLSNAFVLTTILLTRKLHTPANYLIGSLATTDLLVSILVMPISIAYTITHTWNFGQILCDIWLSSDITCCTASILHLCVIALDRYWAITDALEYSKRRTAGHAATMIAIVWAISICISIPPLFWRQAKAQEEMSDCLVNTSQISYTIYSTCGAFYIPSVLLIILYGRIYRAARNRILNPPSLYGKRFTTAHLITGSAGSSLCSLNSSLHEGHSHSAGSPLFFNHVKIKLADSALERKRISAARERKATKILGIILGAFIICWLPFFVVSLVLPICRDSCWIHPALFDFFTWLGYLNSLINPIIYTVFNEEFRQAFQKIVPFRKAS
T3 sequence (P41145 whole entry): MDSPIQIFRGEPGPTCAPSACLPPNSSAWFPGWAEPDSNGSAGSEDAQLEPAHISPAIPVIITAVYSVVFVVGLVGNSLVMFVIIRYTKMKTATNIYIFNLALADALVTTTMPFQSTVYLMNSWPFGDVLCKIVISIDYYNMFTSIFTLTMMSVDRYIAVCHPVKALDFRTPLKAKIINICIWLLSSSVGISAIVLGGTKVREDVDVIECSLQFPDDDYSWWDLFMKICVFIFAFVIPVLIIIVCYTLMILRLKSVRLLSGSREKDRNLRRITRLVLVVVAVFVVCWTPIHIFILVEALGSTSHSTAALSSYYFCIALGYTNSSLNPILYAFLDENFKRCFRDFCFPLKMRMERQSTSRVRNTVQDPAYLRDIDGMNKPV
T5 sequence (P28222 whole entry): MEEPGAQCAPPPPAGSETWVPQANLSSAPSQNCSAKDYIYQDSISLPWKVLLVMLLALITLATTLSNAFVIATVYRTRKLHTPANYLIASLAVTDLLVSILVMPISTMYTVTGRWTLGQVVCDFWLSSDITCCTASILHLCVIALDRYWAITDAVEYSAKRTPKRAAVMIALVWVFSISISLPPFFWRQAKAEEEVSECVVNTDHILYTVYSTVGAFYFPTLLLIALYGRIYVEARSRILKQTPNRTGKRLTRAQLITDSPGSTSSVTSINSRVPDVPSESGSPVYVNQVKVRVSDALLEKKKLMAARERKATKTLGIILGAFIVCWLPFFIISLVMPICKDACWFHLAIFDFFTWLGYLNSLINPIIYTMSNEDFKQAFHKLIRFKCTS
T4 sequence (P35367 whole entry): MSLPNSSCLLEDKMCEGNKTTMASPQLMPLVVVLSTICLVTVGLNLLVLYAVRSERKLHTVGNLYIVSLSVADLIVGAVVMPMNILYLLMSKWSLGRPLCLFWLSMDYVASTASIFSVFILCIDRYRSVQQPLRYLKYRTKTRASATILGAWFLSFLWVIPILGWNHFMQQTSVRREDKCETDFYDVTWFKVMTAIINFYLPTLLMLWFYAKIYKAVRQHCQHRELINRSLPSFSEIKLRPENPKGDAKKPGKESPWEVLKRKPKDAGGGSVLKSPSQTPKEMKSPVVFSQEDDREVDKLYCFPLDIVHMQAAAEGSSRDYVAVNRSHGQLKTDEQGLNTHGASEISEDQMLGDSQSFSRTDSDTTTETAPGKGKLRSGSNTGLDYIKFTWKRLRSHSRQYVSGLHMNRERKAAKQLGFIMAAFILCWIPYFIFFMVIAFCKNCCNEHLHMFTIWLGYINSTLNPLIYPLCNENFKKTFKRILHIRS

## CCC(=O)N1CCC(NC(=O)Nc2ccc(OC(F)(F)F)cc2)CC1 [UNC10302681A, TPPU]
[1]; mean inhibition
  Mean %: 6.94%
[1]; replicate 1
  Inhibition 1: 9.39%
[1]; replicate 2
  Inhibition 2: 25.6%
[1]; replicate 3
  Inhibition 3: 0.78%
[1]; replicate 4
  Inhibition 4: -8.02%
[2]; mean inhibition
  Mean %: 0.73%
[2]; replicate 1
  Inhibition 1: 17.8%
[2]; replicate 2
  Inhibition 2: -3.44%
[2]; replicate 3
  Inhibition 3: -7.6%
[2]; replicate 4
  Inhibition 4: -3.85%
[3]; mean inhibition
  Mean %: -14.38%
[3]; replicate 1
  Inhibition 1: -11.64%
[3]; replicate 2
  Inhibition 2: -17.46%
[3]; replicate 3
  Inhibition 3: -11.75%
[3]; replicate 4
  Inhibition 4: -16.68%
[4]; mean inhibition
  Mean %: 74.57%
[4]; replicate 1
  Inhibition 1: 97.51%
[4]; replicate 2
  Inhibition 2: 87.07%
[4]; replicate 3
  Inhibition 3: 65.55%
[4]; replicate 4
  Inhibition 4: 48.14%
[5]; mean inhibition
  Mean %: -0.64%
[5]; replicate 1
  Inhibition 1: 7.08%
[5]; replicate 2
  Inhibition 2: 0.59%
[5]; replicate 3
  Inhibition 3: -3.14%
[5]; replicate 4
  Inhibition 4: -7.08%
[6]; Alpha1A
  Mean %: -2.01%
  Inhibition 1: 4.58%
  Inhibition 2: -5.33%
  Inhibition 3: -5.52%
  Inhibition 4: -1.78%
[6]; Alpha2A
  Mean %: -5.2%
  Inhibition 1: -1.74%
  Inhibition 2: -8.16%
  Inhibition 3: -13.09%
  Inhibition 4: 2.19%
[6]; Alpha2C
  Mean %: -0.34%
  Inhibition 1: 3.18%
  Inhibition 2: -3.57%
  Inhibition 3: 7.34%
  Inhibition 4: -8.31%
[6]; BZP Rat Brain Site
  Mean %: 9.51%
  Inhibition 1: 23.2%
  Inhibition 2: 7.09%
  Inhibition 3: 1.4%
  Inhibition 4: 6.33%
[6]; DOR
  Mean %: -1.52%
  Inhibition 1: 6.89%
  Inhibition 2: -4.86%
  Inhibition 3: -4.68%
  Inhibition 4: -3.41%
[6]; GABAA
  Mean %: -2.31% and -7.5%
  Inhibition 1: 16.54% and 5.88%
  Inhibition 2: -7.12% and -3.31%
  Inhibition 3: -2.68% and -32.5%
  Inhibition 4: -15.99% and -0.07%
[6]; H3
  Mean %: 21.21%
  Inhibition 1: 28.2%
  Inhibition 2: 25.87%
  Inhibition 3: 12.17%
  Inhibition 4: 18.58%
[6]; H4
  Mean %: -7.02%
  Inhibition 1: -3.06%
  Inhibition 2: -20.34%
  Inhibition 3: -7.38%
  Inhibition 4: 2.7%
[6]; Sigma 1
  Mean %: 19.57%
[6]; Sigma 2
  Mean %: 21.21%
[7]; mean inhibition
  Mean %: -2.23%
[7]; replicate 1
  Inhibition 1: 18.08%
[7]; replicate 2
  Inhibition 2: -1.14%
[7]; replicate 3
  Inhibition 3: -10.91%
[7]; replicate 4
  Inhibition 4: -14.93%
